Results published in patent US6441195B1, “Substituted sulphonylamino(thio) carbonyl compounds” (Bayer Aktiengesellschaft, priority 1995, dated 2002).

Key:
Assay type in all cases: in vivo
Matricaria = experiment: Pre-emergence test/Greenhouse, Matricaria; conditions: after three weeks
Experimental: (§1) To produce a suitable preparation of the active compound, 1 part by weight of active compound is mixed with the stated amount of solvent, the stated amount of emulsifier is added and the concentrate is diluted with water to the desired concentration.
(§2) Seeds of the test plants are sown in normal soil. After about 24 hours, the soil is watered with the preparation of active compound. Advantageously, the amount of water per unit area is kept constant. The active compound concentration in the preparation is not important, only the active compound appliation rate per unit area matters.
(§3) After three weeks, the degree of damage to the plants is rated in % damage in comparison to the development of the untreated control.
(§4) 0%=no action (like untreated control)

Ambrosia = experiment: Pre-emergence test/Greenhouse, Ambrosia; conditions: after three weeks
Experimental: as §1, §2, §3, §4

Lolium = experiment: Pre-emergence test/Greenhouse, Lolium; conditions: after three weeks
Experimental: as §1, §2, §3, §4

Solanum = experiment: Pre-emergence test/Greenhouse, Solanum; conditions: after three weeks
Experimental: as §1, §2, §3, §4

weeds = experiment: Pre-emergence test (greenhouse), activity against weeds; conditions: in words
Experimental: Solvent: 5 parts by weight of acetone
Emulsifier: 1 part by weight of alkylaryl polyglycol ether
as §1, §2, §3, §4

Poa = experiment: Pre-emergence test/Greenhouse, Poa; conditions: after three weeks
Experimental: as §1, §2, §3, §4

Sorghum = experiment: Pre-emergence test/Greenhouse, Sorghum; conditions: after three weeks
Experimental: as §1, §2, §3, §4

Maize = experiment: Pre-emergence test/Greenhouse, Maize; conditions: in vivo
Experimental: as §1, §2, §3, §4

Row | Compound | degree of damage to the plants (% damage vs untreated control), Matricaria (Matricaria; 8 g of ai./ha) | degree of damage to the plants (% damage vs untreated control), Ambrosia (Ambrosia; 8 g of ai./ha) | degree of damage to the plants (% damage vs untreated control), Lolium (Lolium; 8 g of ai./ha) | degree of damage to the plants (% damage vs untreated control), Solanum (Solanum; 8 g of ai./ha) | activity against weeds (weeds) | degree of damage to the plants (% damage vs untreated control), Poa (Poa; 8 g of ai./ha) | degree of damage to the plants (% damage vs untreated control), Sorghum (Sorghum; 8 g of ai./ha) | degree of damage to the plants (% damage vs untreated control), Maize (Maize) | degree of damage to the plants (% damage vs untreated control), Matricaria (Matricaria; 125 g of ai./ha) | degree of damage to the plants (% damage vs untreated control), Ambrosia (Ambrosia; 125 g of ai./ha) | degree of damage to the plants (% damage vs untreated control), Lolium (Lolium; 125 g of ai./ha) | degree of damage to the plants (% damage vs untreated control), Solanum (Solanum; 125 g of ai./ha) | degree of damage to the plants (% damage vs untreated control), Poa (Poa; 125 g of ai./ha) | degree of damage to the plants (% damage vs untreated control), Sorghum (Sorghum; 125 g of ai./ha) | degree of damage to the plants (% damage vs untreated control), Matricaria (Matricaria; 60 g of ai./ha) | degree of damage to the plants (% damage vs untreated control), Ambrosia (Ambrosia; 60 g of ai./ha) | degree of damage to the plants (% damage vs untreated control), Lolium (Lolium; 60 g of ai./ha) | degree of damage to the plants (% damage vs untreated control), Solanum (Solanum; 60 g of ai./ha) | degree of damage to the plants (% damage vs untreated control), Poa (Poa; 60 g of ai./ha) | degree of damage to the plants (% damage vs untreated control), Sorghum (Sorghum; 60 g of ai./ha)
1 | CCOc1nn(C(=O)NS(=O)(=O)c2c(C)cccc2C(=O)OC(C)C)c(=O)n1C1CC1 [Example 46] | 95% | 95% | 80% | 95% | very strong activity against weeds | 95% | 80% | 0% |  |  |  |  |  |  |  |  |  |  |  | 
2 | CCOC(=O)c1scc(C)c1S(=O)(=O)NC(=O)n1nc(CC)n(OCC)c1=O [Example 61] |  |  |  |  | very strong activity against weeds |  |  | 0% | 95% | 100% | 95% | 95% | 95% | 80% |  |  |  |  |  | 
3 | COC(=O)c1cccc(C)c1S(=O)(=O)NC(=O)c1noc(C)n1 [Example 9] |  |  |  |  | very strong activity against weeds |  |  | 0% | 90% | 95% | 80% | 95% | 80% | 60% |  |  |  |  |  | 
4 | COC(=O)c1scc(C)c1S(=O)(=O)NC(=O)c1noc(C)n1 [Example 13] |  |  |  |  | very strong activity against weeds |  |  | 30% | 95% | 95% | 90% | 90% | 80% | 70% |  |  |  |  |  | 
5 | CCOC(=O)c1scc(C)c1S(=O)(=O)NC(=O)n1nc(SC)n(C)c1=O [Example 55] |  |  |  |  | very strong activity against weeds |  |  | 10% | 100% | 100% | 100% | 100% | 90% | 60% |  |  |  |  |  | 
6 | CCOc1nn(C(=O)NS(=O)(=O)c2c(C)csc2C(=O)OC)c(=O)n1CC [Example 41] |  |  |  |  | very strong activity against weeds |  |  | 0% |  |  |  |  |  |  | 95% | 95% | 60% | 90% | 80% | 60%
7 | CCCc1nn(C(=O)NS(=O)(=O)c2c(C)csc2C(=O)OC)c(=O)n1C [Example 35] |  |  |  |  | very strong activity against weeds |  |  | 0% |  |  |  |  |  |  | 100% | 95% | 95% | 95% | 95% | 95%
